Here are results for one compound from ChEMBL document CHEMBL3396954, “Synthesis and in vitro biological evaluation of dihydroartemisinyl-chalcone esters” (Eur J Med Chem, 2015).

Data set [1] deals with Plasmodium falciparum. In words: Antimalarial activity against chloroquine-sensitive Plasmodium falciparum 3D7 assessed as inhibition of parasite proliferation after 96 hrs by SYBR Green I-based fluorescence method. The conditions noted are these: 3D7, 96 h. Format: functional, organism-based.
Data set [2] relates to Plasmodium falciparum. Briefly: Antimalarial activity against chloroquine-resistant Plasmodium falciparum W2 assessed as inhibition of parasite proliferation after 96 hrs by SYBR Green I-based fluorescence method. Format: functional, organism-based. The conditions noted are these: W2, 96 h.
Data set [3] can be described thus: Resistance index, ratio of IC50 for chloroquine-resistant Plasmodium falciparum W2 to IC50 for chloroquine-sensitive Plasmodium falciparum 3D7. The format is functional.
A short description of data set [4]: Cytotoxicity against human WI38 cells assessed as inhibition of proliferation after 24 hrs by SRB assay. The format is cell-based. The conditions noted are these: WI-38, 24 h.
Data set [5] is described as follows: Selectivity index, ratio of IC50 for human WI38 cells to IC50 for chloroquine-sensitive Plasmodium falciparum 3D7. Format: toxicity, cell-based, WI-38. The note with it: read-out: Ratio IC50.
Data set [6] has as its system TK-10. In words: Anticancer activity against human TK10 cells assessed as inhibition of cell growth after 24 hrs by SRB assay. Format: functional, cell-based. The conditions noted are these: TK-10, 24 h.
Data set [7] is described as follows: Anticancer activity against human UACC62 cells assessed as inhibition of cell growth after 24 hrs by SRB assay. Format: functional, cell-based. The note with it: UACC-62, 24 h.
Data set [8] has as its system MCF7. In words: Anticancer activity against human MCF7 cells assessed as inhibition of cell growth after 24 hrs by SRB assay. The format is functional, cell-based. The conditions noted are these: MCF7, 24 h.
The test system of data set [9] is WI-38. Briefly: Selectivity index, ratio of IC50 for human WI38 cells to IC50 for human TK10 cells. Format: functional.
Data set [10] has as its system UACC-62. Briefly: Selectivity index, ratio of IC50 for human WI38 cells to IC50 for human UACC62 cells. The format is functional.
Data set [11] has as its system MCF7. In words: Selectivity index, ratio of IC50 for human WI38 cells to IC50 for human MCF7 cells. The format is functional.
Data set [12] in a line: Selectivity index, ratio of IC50 for chloroquine-resistant Plasmodium falciparum W2 to IC50 for human TK10 cells. Also noted: species or system TK-10.
The nature of data set [13]: Selectivity index, ratio of IC50 for chloroquine-resistant Plasmodium falciparum W2 to IC50 for human UACC62 cells. Also on record: species or system UACC-62.
Data set [14] can be described thus: Selectivity index, ratio of IC50 for chloroquine-resistant Plasmodium falciparum W2 to IC50 for human MCF7 cells.

On to `COc1ccc(C(=O)/C=C/c2ccc(C(=O)OC3O[C@@H]4O[C@]5(C)CC[C@H]6[C@H](C)CC[C@@H]([C@H]3C)[C@@]46OO5)cc2)cc1OC` (some centres undefined), for which the IC50 in data set [1] is 0.00336 µM; in data set [2] it was 0.00146 µM; in data set [4] it was over 100 µM; in data set [6] it was 5.99 µM; in data set [7], 5.19 µM; in data set [8], 3.4 µM. For the same compound, the Ratio IC50 in data set [3] is 0.4; in data set [9], over 17; in data set [10], over 19; in [11], over 29; in data set [12], over 4105; in data set [13] it was over 3556. Moreover, in data set [14], the “Ratio IC50” value is reported as over 2329. Further, in data set [5], the selectivity ratio was over 29800.
